Consider 4 molecules from patent US6410560B1, “Drug for relieving pain and promoting the removal of calculi in urolithiasis” (Kissei Pharmaceutical Co., Ltd., priority 1995, dated 2002).

In this test the test system is human ureteral smooth muscle. The test can be described thus: Relaxation of 40 mM KCl-induced contraction of isolated human ureteral smooth muscle strips. The test is classed as cell-based. Particulars: for ureteral relaxing effect: 40 mM KCl-induced tonic contraction, 10^−6 M phentolamine present, FIG. 1. The method, then: Measurement of the contractile force of the ureteral smooth muscle strip (1) Preparation of smooth muscle strips Specimens of human ureter were obtained from patients undergoing nephrectomy or total cystectomy. After the specimens were carefully dissected free from the surrounding fat tissues, they were cut into spiral strips. The ureteral strips of about 20 mm in length and 5 mm in width were prepared. (2) Experimental conditions Buffer solution; Locke's-solution No.2: NaCl (154 mM), KCl (5.6 mM), CaCl2 (2.1 mM), NaHCO3 (5.6 mM) and glucose (3.6 mM) Ureteral muscle strips without any spontaneous rhythmic contractions were used. An initial resting tension of about 1.0 g was placed. The actions of drugs against the 40 mM KCl-induced tonic contraction were evaluated in the presence of 10^−6 M phentolamine. […] The evaluation of drugs; The drug-induced relaxation was expressed as a percentage of the maximal relaxing response to 10^−5 M of isoproterenol. The ureteral tension before the treatment is indicated as 100%, and the tension after treatment of 10^−5 M of isoproterenol which produces maximal ureteral relaxation is indicated as 0%. According to the methods described above, the ureteral relaxing effects of the drug were measured using the human ureteral smooth muscle strips. According to the method described above, the interaction between a β-adrenoceptor stimulant and a β-adrenoceptor blocker was evaluated in human ureteral smooth muscle strips using the following drugs.

Consider `Cc1ccc(OCC(O)C(C)NC(C)C)c2c1CCC2.Cl` (racemic) [ICI-118,551, (±)-1-[(2,3-dihydro-7-methyl-1H-inden-4-yl)oxy]-3-[(1-methylethyl)amino]-2-butanol hydrochloride], for which, under “40 mM KCl contraction, ICI-118,551 100 nM pre-treatment, FIG. 2”, the “blocking of isoproterenol-induced ureteral relaxation” value was “attenuated the isoproterenol-induced ureteral relaxation, but did not completely block”.
As for `CC(C)NCC(O)c1ccc(O)c(O)c1` (centres unmarked) [isoproterenol], the ureteral relaxing effect result is “showed a more potent relaxing effect”. For the same molecule, the “relaxation produced by isoproterenol in the presence of ICI-118,551” value (40 mM KCl contraction, pre-treatment with 100 nM ICI-118,551, relative to maximal relaxation by 10^−5 M isoproterenol alone, FIG. 2) is “about 50%”.
Regarding `CCC(NC(C)C)C(O)c1ccc(O)c2[nH]c(=O)ccc12` (centres unmarked) [procaterol], the ureteral relaxing effect result is “produced apparent ureteral relaxation”.
As to `CC(C)(C)NCC(O)COc1cccc2[nH]c(=O)[nH]c12.Cl` (racemic) [CGP-12,177A, (±)-4-[3-[(1,1-dimethylethyl)amino]-2-hydroxypropoxy]-1,3-dihydro-2H-benzimidazol-2-one hydrochloride], the ureteral relaxing effect entry is recorded as “produced apparent ureteral relaxation”.
